Assay results taken from ChEMBL document CHEMBL1145527, “Design, synthesis, and antiproliferative and CDK2-cyclin a inhibitory activity of novel flavopiridol analogues” (Bioorg Med Chem, 2007).

What was measured:
[1] = test system: MCF7; assay: Antiproliferative activity against MCF7 cells; assay type: functional, cell-based; conditions: Homo sapiens
[2] = molecular target: Cyclin-dependent kinase 2/cyclin A (Homo sapiens, UniProt P24941); assay: Inhibition of CDK2/Cyclin A; assay type: protein-complex assay
[3] = Antiproliferative activity against ID8 cells; assay type: functional, cell-based; conditions: Mus musculus

| SMILES | IC50 [1] [µM] | IC50 [2] [µM] | IC50 [3] [µM] |
| --- | --- | --- | --- |
| O=c1cc(-c2ccccc2Cl)oc2c(N3CCOCC3)ccc(O)c12 | 20 | 417 | 7.9 |
| O=C(Nc1ccc(O)c2c(=O)cc(-c3ccccc3Cl)oc12)c1ccccc1 | 7.1 | 417 | 13 |
| CC(C)(C)OC(=O)N[C@@H](Cc1ccccc1)C(=O)Nc1ccc(O)c2c(=O)cc(-c3ccccc3Cl)oc12 | 7.1 | 417 | 5.3 |
| O=C(Nc1ccc(O)c2c(=O)cc(-c3ccccc3Cl)oc12)c1ccc(Cl)cc1 | 4.6 | 417 | 5.5 |
| C[C@H](NC(=O)OC(C)(C)C)C(=O)Nc1ccc(O)c2c(=O)cc(-c3ccccc3Cl)oc12 | 5.5 | 417 | 9.8 |
| CC(C)(C)OC(=O)N[C@H](Cc1ccccc1)C(=O)Nc1ccc(O)c2c(=O)cc(-c3ccccc3Cl)oc12 | 4.5 | 417 | 12 |
| O=C(Nc1c(O)cc(O)c2c(=O)cc(-c3ccccc3Cl)oc12)c1ccccc1 | 8.5 | 91 | – |
| CSCC[C@H](NC(=O)OC(C)(C)C)C(=O)Nc1ccc(O)c2c(=O)cc(-c3ccccc3Cl)oc12 | 20 | – | 6.2 |
| COc1ccc(C(=O)Nc2ccc(O)c3c(=O)cc(-c4ccccc4Cl)oc23)cc1 | 3.5 | 383 | 5 |
| CN1CC[C@H](c2c(O)cc(O)c3c(=O)cc(-c4ccccc4Cl)oc23)[C@H](O)C1 [ALVOCIDIB] | 0.026 | – | 0.007 |
| CC(C)C[C@@H](NC(=O)OC(C)(C)C)C(=O)Nc1ccc(O)c2c(=O)cc(-c3ccccc3Cl)oc12 | – | 417 | 17 |
| CCC(C)OC(=O)Nc1ccc(O)c2c(=O)cc(-c3ccccc3Cl)oc12 (stereo not given) | 30 | 417 | 18 |
| CC(C)C[C@H](NC(=O)OC(C)(C)C)C(=O)Nc1ccc(O)c2c(=O)cc(-c3ccccc3Cl)oc12 | 4 | 417 | 5.1 |
| COc1ccc(C(=O)Nc2c(O)cc(O)c3c(=O)cc(-c4ccccc4Cl)oc23)cc1 | 13 | 54 | – |
| Cc1ccc(C(=O)Nc2c(O)cc(O)c3c(=O)cc(-c4ccccc4Cl)oc23)cc1 | 9.7 | 90 | – |
| CSCC[C@@H](NC(=O)OC(C)(C)C)C(=O)Nc1ccc(O)c2c(=O)cc(-c3ccccc3Cl)oc12 | 2.8 | – | 13 |
| O=C(Nc1c(O)cc(O)c2c(=O)cc(-c3ccccc3Cl)oc12)c1ccc(Cl)cc1 | 13 | 339 | – |
| Cc1ccc(C(=O)Nc2ccc(O)c3c(=O)cc(-c4ccccc4Cl)oc23)cc1 | 10 | – | 16 |
| C[C@@H](NC(=O)OC(C)(C)C)C(=O)Nc1ccc(O)c2c(=O)cc(-c3ccccc3Cl)oc12 | 5.5 | – | 104 |
| O=C(Nc1ccc(O)c2c(=O)cc(-c3ccccc3Cl)oc12)c1ccc(Cl)c(Cl)c1 | 15 | 217 | 13 |
